According to patent publication US4205080A, “2,3-Dihydro benzofuran carboxamides” (Shell Oil Company, priority 1979, dated 1980):

Tested on: swine adipose tissue
Assay: inhibition of lipogenesis (lipid synthesis from radioactive glucose) in slices of swine adipose tissue
Type: cell-based
Settings: 100 micrograms per milliliter test compound; 37° C., 2 hours; glucose-U^14 C; 300 microunits of insulin; 5% DMSO; triplicate
Text: The manner in which they cause this effect is not known with certainty; it is believed that they interfere with the synthesis of fatty acids in the tissues. Their effectiveness for this purpose has been ascertained by immersing samples of swine adipose tissue in a liquid medium containing radioactive glucose and the test chemical for a period of time, then isolating the lipid from the treated tissue and determining the up-take of the radioactive carbon by means of scintillation counting techniques. These tests were conducted in swine adipose tissue because in swine, the primary site of lipogenesis--i.e., fatty acid synthesis--appears to be adipose tissue.
Described in more detail, the tests were conducted according to the following general procedure:
150 milligrams of slices of swine adipose tissue were incubated at 37° C. for 2 hours with shaking in 3 milliliters of Krebs-Ringer bicarbonate solution containing one-half of the normal calcium ion concentration, 60 micromoles of glucose, 0.5 micro-Curie of glucose-U^14 C, and 300 microunits of insulin, and 5% dimethyl sulfoxide (DMSO). The test compound was added as a solution or suspension in DMSO and was present as a concentration of 100 micrograms per milliliter of incubation mixture.
The incubation was terminated by addition of 0.25 milliliter of 1 N sulfuric acid. The resulting mixture was extracted with a total of 25 milliliters of chloroform:methanol (2:1, v/v). The extracts were washed according to Folch et al. (J. Biol. Chem., 226, 497-509, (1957)), air dried, and counted in a liquid scintillation counter with 15 milliliters of counting fluid (two parts toluene containing 0.4% w/v New England Nuclear Omnifluor: 1 part Triton X-100). The tests were conducted in triplicate and were accompanied by control tests in which all ingredients,proportions and conditions were the same except that no test compound was included. From the data obtained were calculated the percent inhibition of lipid synthesis by the test compound. The data obtained are reported as the percent inhibition of lipogenesis compared to the results obtained in the control tests wherein only the test compound was omitted.

SMILES | Percent Inhibition (of lipogenesis compared to control tests) [%]
C=CCNC(=O)C1Cc2cc(-c3ccccc3)ccc2O1 (stereo not shown) [Compound 1, 2,3-dihydro-5-phenyl-N-(2-propenyl)-2-benzofurancarboxamide] | 59
C=CCNC(=O)C1Cc2cc(C(C)CC)ccc2O1 (stereo not shown) [Compound 2] | 66
C=CCNC(=O)C1Cc2cc(C3CCCCC3)ccc2O1 (stereo not shown) [Compound 3] | 43
C=CCNC(=O)C1Cc2cc(Cc3ccccc3)ccc2O1 (stereo not shown) [Compound 4] | 64
C=CCNC(=O)C1Cc2c(Oc3ccccc3)cccc2O1 (stereo not shown) [Compound 5] | 77
C=CCNC(=O)C1Cc2cc(-c3ccc(C(C)O)cc3)ccc2O1 (stereo not shown) [Compound 6, 2,3-Dihydro-5-(4-(1-hydroxyethyl)phenyl)-N-(2-propenyl)-2-benzofurancarboxamide] | 40
C=CCNC(=O)C1Cc2cc(-c3ccc(NC(C)=O)cc3)ccc2O1 (stereo not shown) [Compound 7, 5-(4-(Acetylamino)phenyl)-2,3-dihydro-N-(2-propenyl)-2-benzofurancarboxamide] | 76
